pIC50: −log10 of the molar value. Bounds are passed on as bounds.

Assay type in all cases: functional, cell-based
For one test, the system named is MCF7. The test can be described thus: Cytotoxicity against human MCF7 cells after 48 hrs by MTT assay. As to conditions: MCF7, 48 h. (Formazan colour is commonly taken as a measure of viable cells.)
A further test relates to HepG2. Briefly: Cytotoxicity against human HepG2 cells after 48 hrs by MTT assay. The conditions noted are these: HepG2, 48 h.
In a further test the test system is HeLa. Briefly: Cytotoxicity against human HeLa cells after 48 hrs by MTT assay.
A further test relates to A549. Briefly: Cytotoxicity against human A549 cells after 48 hrs by MTT assay. The conditions noted are these: A549, 48 h.
The subject of another test is HT-1080. Briefly: Cytotoxicity against human HT1080 cells after 48 hrs by MTT assay. As to conditions: HT-1080, 48 h.
Another test has as its system HCT-116. Briefly: Cytotoxicity against human HCT116 cells after 48 hrs by MTT assay. The conditions noted are these: HCT-116, 48 h.

Consider `COc1ccc(/C=C/C(=O)N[C@H]2[C@H](O[C@H]3CC[C@@]4(C)C(=CC[C@H]5[C@@H]6C[C@@H]7O[C@]8(CC[C@@H](C)CO8)[C@@H](C)[C@@H]7[C@@]6(C)CC[C@@H]54)C3)O[C@H](CO)[C@@H](O)[C@@H]2O)cc1OC`, for which the negative-log IC50 (pIC50) (in general, the negative decadic logarithm of the IC50, by convention in mol/L) with MCF7 is 4.50; in the test with HepG2, 4.59; in the test on HeLa, 4.58; with A549, 4.52; in the test with HT-1080 it was under 4.30; in the test on HCT-116, 4.54.

Take `COc1cccc(/C=C/C(=O)N[C@H]2[C@H](O[C@H]3CC[C@@]4(C)C(=CC[C@H]5[C@@H]6C[C@@H]7O[C@]8(CC[C@@H](C)CO8)[C@@H](C)[C@@H]7[C@@]6(C)CC[C@@H]54)C3)O[C@H](CO)[C@@H](O)[C@@H]2O)c1OC`: the negative logarithm of the IC50 (pIC50) with MCF7 was 4.35; with HepG2, 4.34; in the test on HeLa, 4.44; in the test with A549, 4.36; with HT-1080, 4.67; in the test on HCT-116, 4.32.

For the compound `C[C@@H]1CC[C@@]2(OC1)O[C@H]1C[C@H]3[C@@H]4CC=C5C[C@@H](O[C@@H]6O[C@H](CO)[C@@H](O)[C@H](O)[C@H]6NC(=O)/C=C/c6ccc(F)cc6)CC[C@]5(C)[C@H]4CC[C@]3(C)[C@H]1[C@@H]2C`, the pIC50 with MCF7 was 4.67; with HepG2, 4.40; with HeLa it was 4.57; with A549, 4.47; in the test on HT-1080, 4.46; in the test on HCT-116 it was 4.46.

On to `C[C@@H]1CC[C@@]2(OC1)O[C@H]1C[C@H]3[C@@H]4CC=C5C[C@@H](O[C@@H]6O[C@H](CO)[C@@H](O)[C@H](O)[C@H]6NC(=O)/C=C/c6ccccc6)CC[C@]5(C)[C@H]4CC[C@]3(C)[C@H]1[C@@H]2C`, for which the pIC50 with MCF7 was 4.80; in the test on HepG2 it was 4.44; with HeLa, 4.89; with A549 it was 4.38; with HT-1080, 4.53; in the test on HCT-116, 4.41.

As for `C[C@@H]1CC[C@@]2(OC1)O[C@H]1C[C@H]3[C@@H]4CC=C5C[C@@H](O[C@@H]6O[C@H](CO)[C@@H](O)[C@H](O)[C@H]6NC(=S)N/N=C/c6cc(C(F)(F)F)cc(C(F)(F)F)c6)CC[C@]5(C)[C@H]4CC[C@]3(C)[C@H]1[C@@H]2C`, the pIC50 in the test on MCF7, in the test with HepG2, with HeLa, in the test on A549, in the test with HT-1080 and in the test with HCT-116 was under 4.30 throughout.

Regarding `COc1ccc(/C=N/NC(=S)N[C@H]2[C@H](O[C@H]3CC[C@@]4(C)C(=CC[C@H]5[C@@H]6C[C@@H]7O[C@]8(CC[C@@H](C)CO8)[C@@H](C)[C@@H]7[C@@]6(C)CC[C@@H]54)C3)O[C@H](CO)[C@@H](O)[C@@H]2O)cc1`, the negative-log IC50 (pIC50) in the test on MCF7 is under 4.30; in the test with HepG2, 4.55; with HeLa it was 4.46; in the test on A549, 4.43; in the test on HT-1080, under 4.30; with HCT-116, 4.42.

For `COc1cc(/C=C/C(=O)N[C@H]2[C@H](O[C@H]3CC[C@@]4(C)C(=CC[C@H]5[C@@H]6C[C@@H]7O[C@]8(CC[C@@H](C)CO8)[C@@H](C)[C@@H]7[C@@]6(C)CC[C@@H]54)C3)O[C@H](CO)[C@@H](O)[C@@H]2O)cc(OC)c1OC`, the pIC50 in the test with MCF7, with HepG2, in the test on HeLa, in the test with A549, with HT-1080 and in the test on HCT-116 was under 4.30 throughout.

On to `C[C@@H]1CC[C@@]2(OC1)O[C@H]1C[C@H]3[C@@H]4CC=C5C[C@@H](O[C@@H]6O[C@H](CO)[C@@H](O)[C@H](O)[C@H]6NC(=O)NC6CC6)CC[C@]5(C)[C@H]4CC[C@]3(C)[C@H]1[C@@H]2C`, for which the pIC50 in the test with MCF7 is under 4.30; with HepG2, under 4.30; in the test with HeLa it was 4.36; with A549, under 4.30; in the test on HT-1080, under 4.30; in the test on HCT-116 it was under 4.30.

On to `COc1ccc(OC)c(/C=C/C(=O)N[C@H]2[C@H](O[C@H]3CC[C@@]4(C)C(=CC[C@H]5[C@@H]6C[C@@H]7O[C@]8(CC[C@@H](C)CO8)[C@@H](C)[C@@H]7[C@@]6(C)CC[C@@H]54)C3)O[C@H](CO)[C@@H](O)[C@@H]2O)c1`, for which the pIC50 was under 4.30 in the test on MCF7; 4.50 in the test on HepG2; 4.49 in the test with HeLa; 4.32 in the test with A549; under 4.30 with HT-1080; 4.45 in the test with HCT-116.

Regarding `C[C@@H]1CC[C@@]2(OC1)O[C@H]1C[C@H]3[C@@H]4CC=C5C[C@@H](O[C@@H]6O[C@H](CO)[C@@H](O)[C@H](O)[C@H]6NC(=O)NC(C)(C)C)CC[C@]5(C)[C@H]4CC[C@]3(C)[C@H]1[C@@H]2C`, the pIC50 is 4.57 in the test on MCF7; under 4.30 in the test on HepG2; 4.56 in the test with HeLa; under 4.30 in the test on A549; 4.37 in the test with HT-1080; under 4.30 in the test on HCT-116.

Turning to `COc1ccc(CNC(=O)N[C@H]2[C@H](O[C@H]3CC[C@@]4(C)C(=CC[C@H]5[C@@H]6C[C@@H]7O[C@]8(CC[C@@H](C)CO8)[C@@H](C)[C@@H]7[C@@]6(C)CC[C@@H]54)C3)O[C@H](CO)[C@@H](O)[C@@H]2O)cc1`, the pIC50 in the test with MCF7, in the test with HepG2, in the test with HeLa, with A549, in the test on HT-1080 and in the test on HCT-116 was under 4.30 each time.

`C[C@@H]1CC[C@@]2(OC1)O[C@H]1C[C@H]3[C@@H]4CC=C5C[C@@H](O[C@@H]6O[C@H](CO)[C@@H](O)[C@H](O)[C@H]6NC(=O)NN6CCCCC6)CC[C@]5(C)[C@H]4CC[C@]3(C)[C@H]1[C@@H]2C`: the negative logarithm of the IC50 (pIC50) in the test on MCF7 was under 4.30; in the test with HepG2, under 4.30; in the test with HeLa it was under 4.30; in the test on A549, under 4.30; in the test with HT-1080, 4.45; in the test on HCT-116 it was under 4.30.

In the case of `COc1ccc(/C=C/C(=O)N[C@H]2[C@H](O[C@H]3CC[C@@]4(C)C(=CC[C@H]5[C@@H]6C[C@@H]7O[C@]8(CC[C@@H](C)CO8)[C@@H](C)[C@@H]7[C@@]6(C)CC[C@@H]54)C3)O[C@H](CO)[C@@H](O)[C@@H]2O)cc1`, the negative logarithm of the IC50 (pIC50) is 6.30 in the test with MCF7; 4.51 in the test with HepG2; 5.21 with HeLa; 4.61 in the test with A549; 5.46 in the test on HT-1080; 4.53 with HCT-116.

`CCCCCCCNC(=O)N[C@H]1[C@H](O[C@H]2CC[C@@]3(C)C(=CC[C@H]4[C@@H]5C[C@@H]6O[C@]7(CC[C@@H](C)CO7)[C@@H](C)[C@@H]6[C@@]5(C)CC[C@@H]43)C2)O[C@H](CO)[C@@H](O)[C@@H]1O`: the pIC50 in the test with MCF7 is under 4.30; in the test on HepG2, under 4.30; in the test with HeLa, under 4.30; with A549, under 4.30; with HT-1080, 4.37; with HCT-116, under 4.30.

On to `O=c1[nH]cc(F)c(=O)[nH]1` [FLUOROURACIL], for which the pIC50 is 4.10 in the test on MCF7; 4.29 with HepG2; 4.20 with HeLa; 4.82 in the test with HT-1080; 4.44 with HCT-116.

Regarding `COc1ccccc1/C=C/C(=O)N[C@H]1[C@H](O[C@H]2CC[C@@]3(C)C(=CC[C@H]4[C@@H]5C[C@@H]6O[C@]7(CC[C@@H](C)CO7)[C@@H](C)[C@@H]6[C@@]5(C)CC[C@@H]43)C2)O[C@H](CO)[C@@H](O)[C@@H]1O`, the pIC50 in the test on MCF7 was 4.64; with HepG2, 4.53; in the test with HeLa, 4.56; with A549 it was 4.64; in the test on HT-1080 it was 5.37; in the test with HCT-116 it was 4.41.

For `Cc1ccc(/C=C/C(=O)N[C@H]2[C@H](O[C@H]3CC[C@@]4(C)C(=CC[C@H]5[C@@H]6C[C@@H]7O[C@]8(CC[C@@H](C)CO8)[C@@H](C)[C@@H]7[C@@]6(C)CC[C@@H]54)C3)O[C@H](CO)[C@@H](O)[C@@H]2O)cc1`, the pIC50 in the test with MCF7 is 5.28; in the test on HepG2, 4.45; in the test with HeLa, 5.19; in the test with A549, 4.38; with HT-1080, 4.63; in the test with HCT-116, 4.39.

On to `C[C@@H]1CC[C@@]2(OC1)O[C@H]1C[C@H]3[C@@H]4CC=C5C[C@@H](O[C@@H]6O[C@H](CO)[C@@H](O)[C@H](O)[C@H]6NC(=O)/C=C/c6cccc(Cl)c6)CC[C@]5(C)[C@H]4CC[C@]3(C)[C@H]1[C@@H]2C`, for which the negative-log IC50 (pIC50) in the test on MCF7, in the test with HepG2, in the test with HeLa, with A549, with HT-1080 and in the test with HCT-116 was under 4.30 throughout.

With `C[C@@H]1CC[C@@]2(OC1)O[C@H]1C[C@H]3[C@@H]4CC=C5C[C@@H](O[C@@H]6O[C@H](CO)[C@@H](O)[C@H](O)[C@H]6NC(=O)NCc6ccc(F)cc6)CC[C@]5(C)[C@H]4CC[C@]3(C)[C@H]1[C@@H]2C`, the pIC50 is under 4.30 with MCF7; under 4.30 in the test on HepG2; under 4.30 with HeLa; under 4.30 in the test on A549; 4.38 in the test with HT-1080; under 4.30 in the test with HCT-116.

As to `CC(=O)N[C@H]1[C@H](O[C@H]2CC[C@@]3(C)C(=CC[C@H]4[C@@H]5C[C@@H]6O[C@]7(CC[C@@H](C)CO7)[C@@H](C)[C@@H]6[C@@]5(C)CC[C@@H]43)C2)O[C@H](CO)[C@@H](O)[C@@H]1O`, the pIC50 with HepG2, in the test on A549, in the test on HT-1080 and with HCT-116 was under 4.30 throughout.

The values are drawn from ChEMBL document CHEMBL2203140, “Syntheses and structure-activity relationship studies of N-substituted-β-D-glucosaminides as selective cytotoxic agents” (Bioorg Med Chem Lett, 2012).
